Results on 18 molecules are retold here after patent US20160046592A1, “PHARMACEUTICAL COMPOSITION FOR THE TREATMENT OF DIABETES” (Ajinomoto Co., Inc., priority 2013, published 2016).

Structures can show the parent of a compound that is named as a salt.

The assay deals with T1, human GYS1 (glycogen synthase) (Homo sapiens, UniProt P13807).
T1 construct: made in house; host or cells: HEK293T
T1 sequence (P13807 1-737): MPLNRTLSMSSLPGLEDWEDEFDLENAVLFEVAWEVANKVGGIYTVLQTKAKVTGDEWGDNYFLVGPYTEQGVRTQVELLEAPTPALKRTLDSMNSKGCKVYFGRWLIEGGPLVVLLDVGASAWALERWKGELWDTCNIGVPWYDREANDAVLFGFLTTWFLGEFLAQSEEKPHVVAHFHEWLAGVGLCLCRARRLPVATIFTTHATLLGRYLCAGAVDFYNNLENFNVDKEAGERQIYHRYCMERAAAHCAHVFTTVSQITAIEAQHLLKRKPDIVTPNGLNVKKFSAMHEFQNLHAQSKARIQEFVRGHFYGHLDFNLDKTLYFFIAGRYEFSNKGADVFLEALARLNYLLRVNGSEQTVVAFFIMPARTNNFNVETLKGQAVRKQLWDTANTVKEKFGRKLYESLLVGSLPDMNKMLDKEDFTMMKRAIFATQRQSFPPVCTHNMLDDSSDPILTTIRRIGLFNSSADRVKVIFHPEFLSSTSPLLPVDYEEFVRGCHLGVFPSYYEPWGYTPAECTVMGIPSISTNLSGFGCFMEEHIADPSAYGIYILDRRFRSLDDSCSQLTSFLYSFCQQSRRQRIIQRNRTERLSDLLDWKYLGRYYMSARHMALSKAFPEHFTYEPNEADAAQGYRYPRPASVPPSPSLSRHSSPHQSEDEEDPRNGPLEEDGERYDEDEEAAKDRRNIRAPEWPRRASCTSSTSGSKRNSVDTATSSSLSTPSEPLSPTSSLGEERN
In words: Measurement of glycogen synthase activity. The class given is biochemical. To be noted: concentration causing 50% increase in relative activity; 100% = compound of Example 1 of WO/2011/058154 at 10 μM; 10 mM Glucose-6-phosphate; 37° C. for 25 minutes (Examples 1 to 61 and 67 to 82) or 20 minutes (Examples 62 to 66); absorbance at 340 nm. How it is done:
A human GYS1 expression plasmid (pCDNA3.1(+)-hGYS1) was constructed by the following method. By using a human skeletal muscle cDNA of Human MTC Panel I (Takara Bio Inc., 636742) as a template, a human GYS1 gene was amplified by a PCR method using cloning primers (Forward Primer: ATGCCTTTAAACCGCAC, Reverse Primer: TTAGTTACGCTCCTCGC). By using the amplified human GYS1 sequence as a template, restriction enzyme sequences were added by a PCR method using sub-cloning primers (Forward Primer: […], and Reverse Primer: […]), and then the human GYS1 gene was introduced between Xho I and Xba I sites of pCDNA3.1(+) (Invitrogen, V790-20).
Glycogen synthase was prepared by the following method. Human kidney-derived HEK293T cells were seeded in a dish (Thermo Fisher Scientific K.K., 168381) by using a 10% FBS-containing DMEM (Nacalai Tesque, Inc., 0845874) medium, and cultured overnight. Then, by using Lipofectamine LTX (Invitrogen, 15338-100), the cells were transfected with the human GYS1 expression vector according to the attached manual. After culturing under conditions of 37° C. and 5% CO2 for 2 days, the resultant was lysed in a lysis buffer (50 mM Tris-HCl (pH 8.0), 10 mM EDTA, 2 mM EGTA, 100 mM NaF, 1 mM PMSF, 1 mM DTT, and 1× Complete (Roche, 1873580)), homogenized, and then centrifuged at 16000×g at 4° C. for 15 minutes. The precipitated fraction re-dissolved by adding the lysis buffer was used as a glycogen synthase for evaluation.
The glycogen synthase activity was measured by the following method. To a polystyrene 96-well plate, solutions each containing 30 mM glycylglycine (pH 7.3), 40 mM KCl, 20 mM MgCl2, 9.2% DMSO containing one of the test compounds at one of various concentrations, and 10 mM Glucose-6-phosphate (Sigma-Aldrich, G7879) were added at 12 μL/well.
Next, a substrate solution containing 30 mM glycylglycine (pH 7.3), 4.3 mg/mL glycogen (Sigma-Aldrich, G8876), 21.6 mM UDP-glucose (Sigma-Aldrich, U4625), 21.6 mM phosphoenolpyruvic acid (Sigma-Aldrich, P0564), and 4.05 mM NADH (Sigma-Aldrich, N8129) was added at 18 μL/well.
Moreover, an enzyme solution containing 50 mM Tris-HCl (pH 8.0), 27 mM DTT (NACALAI TESQUE, INC., 14128-04), 0.2 mg/mL bovine serum albumin, 0.17 mg/mL glycogen synthase, and 1.5 μL pyruvate kinase/lactate dehydrogenase solution (Sigma-Aldrich, P0294) was added at 18 μL/well to prepare reaction solutions. After the reaction solutions were incubated (at 37° C. for 25 minutes for Examples 1 to 61 and 67 to 82 or at 37° C. for 20 minutes for Examples 62 to 66), the absorbance at 340 nm was measured by using Benchmark Plus (Bio-Rad Laboratories, Inc.).
The activity of each test compound was calculated by the following method. The absorbance at 340 nm of the reaction solution containing the compound and DMSO was subtracted from the absorbance at 340 nm of a reaction solution not containing the compound but containing only DMSO to calculate the change (ΔA340) in absorbance. The relative activity (%) of the test compound at each of the various concentrations was calculated, where the ΔA340 of a reaction solution containing the compound of Example 1 of WO/2011/058154 at a final concentration of 10 μM was taken as 100%. EC50 representing the concentration of the compound at which an increase in the relative activity by 50% was caused was calculated using XLfit (idbs).
For the molecule `CSc1cc(F)c(F)cc1-c1ccc(OCc2cccc(C(=O)N(CC(=O)O)Cc3ccncn3)c2)cc1` [Example 53, 2-[[3-[[4-(4,5-Difluoro-2-methylsulfanyl-phenyl)phenoxy]methyl]benzoyl]-(pyrimidin-4-ylmethyl)amino]acetic Acid], the EC50 is 7.9 nM.
For `CSc1cc(F)c(F)cc1-c1ccc(OCc2cccc(C(=O)N(CC(=O)O)Cc3ccn[nH]3)c2)cc1` [Example 54, 2-[[3-[[4-(4,5-Difluoro-2-methylsulfanyl-phenyl)phenoxy]methyl]benzoyl]-(1H-pyrazol-5-ylmethyl)amino]acetic Acid] the value was 15 nM; for `CN(C)C(=O)CN(CC(=O)O)C(=O)c1cccc(COc2ccc(-c3cc(F)c(F)c4ccoc34)cc2)c1` [Example 11, 2-[[3-[[4-(4,5-Difluorobenzofuran-7-yl)phenoxy]methyl]benzoyl]-[2-(dimethylamino)-2-oxo-ethyl]amino]acetic Acid], 10 nM; for `CNC(=O)CN(CC(=O)O)C(=O)c1cccc(COc2ccc(-c3cc(F)c(F)c4ccoc34)cc2)c1` [Example 15, 2-[[3-[[4-(4,5-Difluorobenzofuran-7-yl)phenoxy]methyl]benzoyl]-[2-(methylamino)-2-oxo-ethyl]amino]acetic Acid], 13 nM.
The molecule `CSc1cc(F)c(F)cc1-c1ccc(OCc2cccc(C(=O)N(CCS(C)(=O)=O)CC(=O)O)c2)cc1` [Example 31, 2-[[3-[[4-(4,5-Difluoro-2-methylsulfanyl-phenyl)phenoxy]methyl]benzoyl]-(2-methylsulfonylethyl)amino]acetic Acid] registered an EC50 of 18 nM.
The molecule `CCN1CCC(CN(CC(=O)O)C(=O)c2cccc(COc3ccc(-c4cc(F)c(F)cc4SC)cc3)c2)CC1` [Example 38, 2-[[3-[[4-(4,5-Difluoro-2-methylsulfanyl-phenyl)phenoxy]methyl]benzoyl]-[(1-ethyl-4-piperidyl)methyl]amino]acetic Acid Trifluoroacetate] yielded an EC50 of 19 nM.
Then `CSc1cc(F)c(F)cc1-c1ccc(OCc2cccc(C(=O)N3C(C(N)=O)CC[C@H]3C(=O)O)c2)cc1` (single isomer, unassigned) [Example 58, (2S,5S) or (2S,5R)-5-Carbamoyl-1-[3-[[4-(4,5-difluoro-2-methylsulfanyl-phenyl)phenoxy]methyl]benzoyl]pyrrolidine-2-carboxylic Acid], with 7.3 nM; and `CSc1cc(F)c(F)cc1-c1ccc(OCc2cccc(C(=O)N(CC(=O)O)CC(=O)O)c2)cc1` [Example 27, 2-[Carboxymethyl-[3-[[4-(4,5-difluoro-2-methylsulfanyl-phenyl)phenoxy]methyl]benzoyl]amino]acetic Acid], with 10 nM.
Then `O=C(O)CN(CC1CCNCC1)C(=O)c1cccc(COc2ccc(-c3cc(F)c(F)c4ccoc34)cc2)c1` [Example 12, 2-[[3-[[4-(4,5-Difluorobenzofuran-7-yl)phenoxy]methyl]benzoyl]-(4-piperidylmethyl)amino]acetic Acid Trifluoroacetate], with 16 nM; and `NC(=O)CCN(CC(=O)O)C(=O)c1cccc(COc2ccc(-c3cc(F)c(F)c4ccoc34)cc2)c1` [Example 79, 2-[(3-Amino-3-oxo-propyl)-[3-[[4-(4,5-difluorobenzofuran-7-yl)phenoxy]methyl]benzoyl]amino]acetic Acid], with 22 nM; and `CSc1cc(F)c(F)cc1-c1ccc(OCc2cccc(C(=O)N(CC(=O)O)Cc3cccnc3)c2)cc1` [Example 39, 2-[[3-[[4-(4,5-Difluoro-2-methylsulfanyl-phenyl)phenoxy]methyl]benzoyl]-(3-pyridylmethyl)amino]acetic Acid Trifluoroacetate], with 21 nM.
For `CSc1cc(F)c(F)cc1-c1ccc(OCc2cccc(C(=O)N(CC(N)=O)CC(=O)O)c2)cc1` [Example 10, 2-[(2-Amino-2-oxo-ethyl)-[3-[[4-(4,5-difluoro-2-methylsulfanyl-phenyl)phenoxy]methyl]benzoyl]amino]acetic Acid] the value was 7.2 nM.
`COC[C@H]1CC[C@@H](C(=O)O)N1C(=O)c1cccc(COc2ccc(-c3cc(F)c(F)cc3SC)cc2)c1` [Example 65, (2S,5R)-1-[3-[[4-(4,5-Difluoro-2-methylsulfanyl-phenyl)phenoxy]methyl]benzoyl]-5-(methoxymethyl)pyrrolidine-2-carboxylic Acid]: the EC50 came to 18 nM.
Then `CSc1cc(F)c(F)cc1-c1ccc(OCc2cccc(C(=O)N(CC(=O)O)[C@@H](C)C(N)=O)c2)cc1` [Example 22, 2-[[(1S)-2-Amino-1-methyl-2-oxo-ethyl]-[3-[[4-(4,5-difluoro-2-methylsulfanyl-phenyl)phenoxy]methyl]benzoyl]amino]acetic Acid], with 13 nM; and `CSc1cc(F)c(F)cc1-c1ccc(OCc2cccc(C(=O)N3[C@@H](CO)CC[C@H]3C(=O)O)c2)cc1` [Example 64, (2S,5R)-1-[3-[[4-(4,5-Difluoro-2-methylsulfanyl-phenyl)phenoxy]methyl]benzoyl]-5-(hydroxymethyl)pyrrolidine-2-carboxylic Acid], with 22 nM; and `CSc1cc(F)c(F)cc1-c1ccc(OCc2cccc(C(=O)N(CCNC(C)=O)CC(=O)O)c2)cc1` [Example 44, 2-[2-Acetamidoethyl-[3-[[4-(4,5-difluoro-2-methylsulfanyl-phenyl)phenoxy]methyl]benzoyl]amino]acetic Acid], with 25 nM.
For `CSc1cc(F)c(F)cc1-c1ccc(OCc2cccc(C(=O)N(CC(=O)O)Cc3cnco3)c2)cc1` [Example 47, 2-[[3-[[4-(4,5-Difluoro-2-methylsulfanyl-phenyl)phenoxy]methyl]benzoyl]-(oxazol-5-ylmethyl)amino]acetic Acid] the value was 18 nM.
`NC(=O)C1CC[C@@H](C(=O)O)N1C(=O)c1cccc(COc2ccc(-c3cc(F)c(F)c4ccoc34)cc2)c1` (single isomer, unassigned) [Example 4, (2S,5R) or (2S,5S)-5-Carbamoyl-1-[3-[[4-(4,5-difluorobenzofuran-7-yl)phenoxy]methyl]benzoyl]pyrrolidine-2-carboxylic Acid]: the EC50 was under 3 nM.
